Experiment: gradient 5% acetonitrile 3 min, to 50% in 2 min, to 85% in 15 min, held 3 min, 100 µL/min
Conditions: column: Zorbax Extend-C18 2.1 x 50 mm; eluents: water / acetonitrile, 0.1% formic acid
In short: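 Data were gathered over 3 months by HPLC coupled to a quadrupole time-of-flight mass spectrometer, operated in positive and negative ionization mode. Mixtures of ~100 pure standards ran on a Zorbax Extend-C18 column (2.1 × 50 mm, 1.8 μm) at 100 μL/min, with water and acetonitrile each containing 0.1% formic acid and dead and dwell volumes of 40 μL and 900 μL. Retention time was read from adduct peaks picked by computer and checked manually.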

Compound | RP-LC retention time [s]
Cc1cccc2nnc(N3CCCC(C(=O)NCCC(C)C)C3)n12 (stereo not given) | 586
CCSCCOC(=O)C1=C(C)NC2=C(C(=O)C(C(=O)OC)C(C)C2)C1c1cccc(OC)c1 (stereo not given) | 968
Cc1cc(-c2ccc(S(=O)(=O)N3CCC(C(=O)NCc4ccco4)CC3)o2)n[nH]1 | 733
O=S(=O)(c1cccc2cccnc12)N1CCCn2nc(-c3cccnc3)cc2C1 | 624
COc1ccc(-c2nc(CN3C(=O)C(O)(c4cccc(F)c4)c4ccccc43)c(C)o2)cc1 (stereo not given) | 1040
CCOC(=O)C1CCN(S(=O)(=O)c2cc3c4c(c2)CCC(=O)N4CCC3)CC1 | 769
CCOCCCNC(=O)c1nc(Nc2ccc(CC)cc2)c2ccccc2n1 | 813
Cc1cc(NC(=O)N2C[C@@H](F)C[C@H]2C(=O)N2CCCCC2)ccc1Br | 824
CCCn1cc(S(=O)(=O)Nc2cccc(Cl)c2)c2cccnc21 | 942
CCc1ccc(C(C)NC(=O)C2CCN(Cc3cn(C)c4ccccc34)CC2)cc1 (stereo not given) | 764
COc1cccc(C2=NC3(CCN(C(C)C)CC3)NC(c3cc(Br)ccc3O)C2)c1 (stereo not given) | 647
O=C(Nc1cccc(-c2cn3cccnc3n2)c1)c1ccccc1[N+](=O)[O-] | 637
Cc1cc(=O)oc2c(C)c(OCC(O)CN3CCC(C(N)=O)CC3)ccc12 (stereo not given) | 579
O=C(N[C@H]1C[C@@H]2C[C@H]1CN2S(=O)(=O)c1cccnc1)c1ccccc1 | 697
Cn1cc(S(=O)(=O)NCc2ccc(F)cc2Cl)c2cccnc21 | 821
O=C(Nc1ccccc1F)N1C[C@H]2C[C@@H](C1)c1cccc(=O)n1C2 | 610
CN(Cc1ccccc1)C(=O)C1CCN(S(=O)(=O)c2ccc3c(c2)sc(=O)n3C)CC1 | 852
Cc1csc(NC(=O)Cn2nc3c(cc2=O)CCCC3)n1 | 683
O=C(c1csc(N2CCN(c3ccccc3)CC2)n1)N1CCCCC1 | 1020
CCCn1c(-c2cccc(C(=O)NC(C)c3ccc(C)cc3C)c2)nc2cccnc21 (stereo not given) | 955
C=CCN(C(=O)C1CCCN(c2ncnc3c2nc2n3CCCCC2)C1)c1ccccc1 (stereo not given) | 864
Cc1ccc(-c2n[nH]c3c2CN(S(=O)(=O)c2cn(C)cn2)CC3)cc1 | 687
O=C(NCc1cccs1)NCC1CN(c2cccc(Cl)c2)C(=O)O1 (stereo not given) | 731
Cc1nc2ccn(Cc3ccco3)c(=O)c2cc1C(=O)NCCN1CCOCC1 | 585

Compound | RP-LC retention time [s]
COC(=O)c1cc(S(=O)(=O)N2CCCC2C(=O)N2CCN(c3cccc(Cl)c3)CC2)cn1C (stereo not given) | 929
CCc1ccc(CNC(=O)CC2CCN(C(=O)c3[nH]c(C)c(C(=O)OC)c3C)CC2)cc1 | 795
COc1ccc(-c2ccnc3nc(-c4ccccc4OC)nn23)cc1OC | 804
O=C(C1CCN(c2cnn(Cc3ccccc3)c(=O)c2)CC1)N1CCCCC1 | 761
O=C1Nc2ccccc2SC1C(=O)N1CCC(C(=O)N2CCN(c3ccccn3)CC2)CC1 (stereo not given) | 596
COc1ccc(-c2nnc(-c3ccccc3Cl)o2)cc1S(=O)(=O)N1CCCCCC1 | 1100
O=C(c1ccc(F)c(Cl)c1)N1CCN(c2nc(CN3CCOCC3)cs2)CC1 | 638
CCCN1C(=O)CCc2cc(NS(=O)(=O)c3cccs3)ccc21 | 797
COc1ccc(NC(=O)C2CC(=O)N(CCc3c[nH]c4ccc(OC)cc34)C2)cc1 (stereo not given) | 728
CCCCC(=O)N1CCN(C2CCN(CCOC)C2=O)CC1 (stereo not given) | 535
COCc1cn(C2CN(C(=O)c3ccc(OC)c(F)c3)C2)nn1 | 649
CC1(C)CC(=O)c2cn(-c3ccc(F)cc3)c(=O)c(C(=O)N3CCCC3)c2C1 | 729
O=C(NC1CCCC1)N1CCC(OC2CCN(Cc3ccccc3)CC2)CC1 | 634
CCCN(C)S(=O)(=O)c1cc(-c2nc(C)cs2)n(CC(=O)N2CCCCC2)c1 | 967
CCC(=O)N1CCCC1COc1ccc(C(=O)N2CCCC2)cc1 (stereo not given) | 712
COc1ccccc1CN[C@H]1CCCN[C@H]1c1ccccc1 | 578
CCN(CC)C(=O)N[C@@H]1C[C@@H]2c3cccc4[nH]cc(c34)C[C@H]2N(C)C1 | 684
Cc1cc(C)c(S(=O)(=O)N2CCN(C(=O)c3ccc4c(c3)OCO4)CC2)c(C)c1 | 912
C=CCNS(=O)(=O)CCNC(=O)c1ccccc1 | 629
CCn1c(C(=O)N2CCCC(C(=O)N3CCN(c4ccccc4)CC3)C2)cc2sccc21 (stereo not given) | 970
CCCn1c(=O)c(C)nc2cc(-c3noc(COc4ccc(F)cc4)n3)ccc21 | 1060
CCCc1cc(C2CCCN2C(=O)Nc2ccc(OC)c(OC)c2)no1 (stereo not given) | 778
Cc1c(C(=O)NCCOc2cccc3cccnc23)cnn1-c1ccccc1 | 593
Cc1csc(-c2cc(S(=O)(=O)Nc3ccc(F)cc3Cl)cn2CC(=O)N2CCCC2)n1 | 944

Results, then the compound that gave them:

RP-LC retention time [s] | Compound
956 | Cc1ccc(Cn2nnc(C(=O)N3CCSCC3)c2-n2cccc2)cc1
737 | Cc1nc(CC(=O)Nc2ccc(F)cc2C)cs1
564 | CC(C)CN1CCN(C(=O)C2CCCN(c3cnc4nccnc4c3)C2)CC1 (stereo not given)
581 | Cc1nc2cc(N3CCCC(C(=O)N4CCN(c5ccccn5)CC4)C3)cnc2nc1C (stereo not given)
666 | Cc1noc(C)c1CCC(=O)N1CCC(c2nnc(-c3ccco3)s2)CC1
808 | Cc1ccc(C(=O)Nc2nccnc2C(=O)NCC2CCCO2)cc1 (stereo not given)
1120 | Cc1ccccc1-c1noc(CN2C(=O)COc3ccc(Cl)cc32)n1
1170 | CC(C)OC(=O)COc1cc(O)c2c(=O)cc(-c3ccccc3)oc2c1
612 | CC(C)n1cnc2cc(CNC(=O)c3c(F)cccc3F)ccc21
882 | O=C(C1CC(=O)N(c2n[nH]c3cccc(F)c23)C1)N1CCC(Cc2ccccc2)CC1 (stereo not given)
1140 | CC1OC1c1ccc(-c2ccc(C3OC3C)cc2)cc1 (stereo not given)
910 | CCN(c1ccccc1)S(=O)(=O)c1cc2c3c(c1)CCC(=O)N3CCC2
889 | CCn1cnc(S(=O)(=O)N2CCCC(C(=O)Nc3ccc(Br)c(C)c3)C2)c1 (stereo not given)
985 | Cc1cc(C)c(NC(=O)Cn2nc3cc(-c4ccccc4)nc(C)n3c2=O)c(C)c1
1150 | CCOc1nc2ccccc2nc1N1CCCC(C(=O)N2CCSCC2)C1 (stereo not given)
691 | CCNC(=O)Nc1ccc(OCC(=O)NCc2cc(OC)cc(OC)c2)nc1
723 | Cc1ccc(CNC(=O)C2CCc3nc(N4CCOCC4)ncc3C2)cc1 (stereo not given)
609 | CC(=O)Nc1ccc(NC(=O)c2cc3sc(C)c(CN4CCCCC4)c3[nH]2)cc1
749 | COCCNC(=O)N1c2ccccc2NC2=C(C(=O)CC(C)(C)C2)C1c1ccc(F)cc1 (stereo not given)
614 | O=C(Nc1cccc(Br)c1)N1CCc2nc[nH]c2C1
617 | COc1cc(C(=O)NCC(=O)Nc2nc3ccccc3[nH]2)cc(OC)c1OC

RP-LC retention time [s] | Compound
602 | CCCNC(=O)N1CCCC(c2nn(C)c(=O)n2CC)C1 (stereo not given)
681 | Cc1cnc(CNC(=O)c2c(=O)c3ccc(N4CCCN(C)CC4)nc3n3c2sc2ccccc23)cn1
597 | CC(C)n1cnc(S(=O)(=O)N2CCCC(C(=O)NCc3ccc(N(C)C)cc3)C2)c1 (stereo not given)
675 | CC(C(=O)N1CCN(c2ccccn2)CC1)C1CCN(C(=O)c2cc3cc(Cl)ccc3[nH]2)CC1 (stereo not given)
569 | CCN1CCN(CCCNC(=O)c2ccc(CS(=O)c3ccc(Cl)cc3)o2)CC1 (stereo not given)
556 | CCOC(=O)CNC(=O)N1CCN(c2nc3ccccc3n3cccc23)CC1
625 | CC(C)c1nnc(-c2coc(S(=O)(=O)N3CCC(N4CCCCC4)CC3)c2)o1
836 | CCc1cccc(NC(=O)C2CCCN2S(=O)(=O)c2cc3c(cc2Cl)NC(=O)CO3)c1 (stereo not given)
600 | Cc1cc(NC(=O)C2=COCCO2)no1
718 | O=C(NCc1ccc(F)cc1)Nc1cccn2ncnc12
730 | Cc1ccc(-c2c(C(=O)NCC3CCCO3)nc3ccccn23)cc1 (stereo not given)
612 | CC1CC(=O)NN=C1c1ccc(N)c([N+](=O)[O-])c1 (stereo not given)
680 | COc1ccc(OC)c(CNC(=O)C2CCN(c3ccc4nncn4n3)CC2)c1
1080 | Cc1ccc(Cn2c(N3CCCC(C(=O)Nc4ccc(C)cc4)C3)nc3ccsc3c2=O)cc1 (stereo not given)
903 | O=C(NCCc1ccccc1)Nc1nccn(-c2ccc(F)c(F)c2)c1=O
610 | O=C(NC1CCN(Cc2ccccc2)CC1)c1cn2cc(Cl)ccc2n1
703 | O=C(Nc1ccccc1)N(Cc1nnc2n1CCCCC2)c1ccc2c(c1)OCO2
754 | Cc1cccc(CNS(=O)(=O)c2ccc3c(c2)CCCC(=O)N3)c1
1210 | COc1ccc(-c2nc(-c3cccc(-c4ccnn4C)c3)no2)c(C)c1
1200 | CCn1c(=O)oc2cc(-c3noc(-c4ccc(C)c(F)c4)n3)ccc21
588 | CC1CCN(c2ccc(-c3cccc(N)c3)nn2)CC1

Reference: the METLIN SMRT retention time set (Domingo-Almenara et al. 2019)
